Experimental data: US8519137B2, “Heteroaryl amides useful as inhibitors of voltage-gated sodium channels” (Vertex Pharmaceuticals Incorporated, priority 2007, dated 2013)
Read-outs that look alike come from different tables or passages of the source.

Assays:
NaV 1.7 channel = NaV 1.7 channel (Homo sapiens, UniProt Q15858); assay: Optical membrane potential assay, NaV 1.7 inhibition; format: cell-based; details: activity against NaV 1.7 channel
Description: (§1) Compounds of the invention are useful as antagonists of voltage-gated sodium ion channels. Antagonist properties of test compounds were assessed as follows. Cells expressing the NaV of interest were placed into microtiter plates. After an incubation period, the cells were stained with fluorescent dyes sensitive to the transmembrane potential. The test compounds were added to the microtiter plate. The cells were stimulated with either a chemical or electrical means to evoke a NaV dependent membrane potential change from unblocked channels, which was detected and measured with trans-membrane potential-sensitive dyes. Antagonists were detected as a decreased membrane potential response to the stimulus. The optical membrane potential assay utilized voltage-sensitive FRET sensors described by Gonzalez and Tsien (See, Gonzalez, J. E. and R. Y. Tsien (1995) “Voltage sensing by fluorescence resonance energy transfer in single cells” Biophys J 69(4): 1272-80, and Gonzalez, J. E. and R. Y. Tsien (1997) “Improved indicators of cell membrane potential that use fluorescence resonance energy transfer” Chem Biol 4(4): 269-77) in combination with instrumentation for measuring fluorescence changes such as the Voltage/Ion Probe Reader (VIPR®) (See, Gonzalez, J. E., K. Oades, et al. (1999) “Cell-based assays and instrumentation for screening ion-channel targets” Drug Discov Today 4(9): 431-439).
(§2) C) VIPR® Optical Membrane Potential Assay Method with Electrical Stimulation
(§3) The following is an example of how NaV1.3 inhibition activity is measured using the optical membrane potential method#2. Other subtypes are performed in an analogous mode in a cell line expressing the NaV of interest.
(§4) The electrical stimulation instrument and methods of use are described in ION Channel Assay Methods PCT/US01/21652, herein incorporated by reference. The instrument comprises a microtiter plate handler, an optical system for exciting the coumarin dye while simultaneously recording the coumarin and oxonol emissions, a waveform generator, a current-or voltage-controlled amplifier, and a device for inserting electrodes in well. Under integrated computer control, this instrument passes user-programmed electrical stimulus protocols to cells within the wells of the microtiter plate.
(§5) Assay Protocol • 1 Insert or use electrodes into each well to be assayed. • 2. Use the current-controlled amplifier to deliver stimulation wave pulses for 3 s. Two seconds of pre-stimulus recording are performed to obtain the un-stimulated intensities. Five seconds of post-stimulation recording are performed to examine the relaxation to the resting state.
(§6) Data are analyzed and reported as normalized ratios of background-subtracted emission intensities measured in the 460 nm and 580 nm channels. Background intensities are then subtracted from each assay channel. Background intensities are obtained by measuring the emission intensities during the same time periods from identically treated assay wells in which there are no cells. The response as a function of time is then reported as the ratios obtained using the following formula: […]
(§7) The data is further reduced by calculating the initial (Ri) and final (Rf) ratios. These are the average ratio values during part or all of the pre-stimulation period, and during sample points during the stimulation period. The response to the stimulus , ρ=Rf/Ri is then calculated.
(§8) Control responses are obtained by performing assays in the presence of a compound with the desired properties (positive control) and in the absence of pharmacological agents (negative control). Responses to the negative (N) and positive (P) controls are calculated as above. The activity A of the assay well relative to positive and negative controls is defined as: […]

NaV1.8 [1] = target: T1, NaV1.8 (Homo sapiens, UniProt Q9Y5Y9); assay: Optical membrane potential assay, NaV 1.8 inhibition; format: cell-based; details: activity against NaV 1.8 channel
Description: as §1, §2, §3, §4, §5, §6, §7, §8

NaV1.3 [2] = target: T2, NaV1.3 (Homo sapiens, UniProt Q9NY46); assay: VIPR optical membrane potential assay, NaV 1.3 inhibition; format: cell-based; parameters: expressed in transfected cells; host or cells: HEK293; details: activity against NaV 1.3 channel
Description: as §1, §2, §3
Target sequence in this assay (Q9NY46 whole entry): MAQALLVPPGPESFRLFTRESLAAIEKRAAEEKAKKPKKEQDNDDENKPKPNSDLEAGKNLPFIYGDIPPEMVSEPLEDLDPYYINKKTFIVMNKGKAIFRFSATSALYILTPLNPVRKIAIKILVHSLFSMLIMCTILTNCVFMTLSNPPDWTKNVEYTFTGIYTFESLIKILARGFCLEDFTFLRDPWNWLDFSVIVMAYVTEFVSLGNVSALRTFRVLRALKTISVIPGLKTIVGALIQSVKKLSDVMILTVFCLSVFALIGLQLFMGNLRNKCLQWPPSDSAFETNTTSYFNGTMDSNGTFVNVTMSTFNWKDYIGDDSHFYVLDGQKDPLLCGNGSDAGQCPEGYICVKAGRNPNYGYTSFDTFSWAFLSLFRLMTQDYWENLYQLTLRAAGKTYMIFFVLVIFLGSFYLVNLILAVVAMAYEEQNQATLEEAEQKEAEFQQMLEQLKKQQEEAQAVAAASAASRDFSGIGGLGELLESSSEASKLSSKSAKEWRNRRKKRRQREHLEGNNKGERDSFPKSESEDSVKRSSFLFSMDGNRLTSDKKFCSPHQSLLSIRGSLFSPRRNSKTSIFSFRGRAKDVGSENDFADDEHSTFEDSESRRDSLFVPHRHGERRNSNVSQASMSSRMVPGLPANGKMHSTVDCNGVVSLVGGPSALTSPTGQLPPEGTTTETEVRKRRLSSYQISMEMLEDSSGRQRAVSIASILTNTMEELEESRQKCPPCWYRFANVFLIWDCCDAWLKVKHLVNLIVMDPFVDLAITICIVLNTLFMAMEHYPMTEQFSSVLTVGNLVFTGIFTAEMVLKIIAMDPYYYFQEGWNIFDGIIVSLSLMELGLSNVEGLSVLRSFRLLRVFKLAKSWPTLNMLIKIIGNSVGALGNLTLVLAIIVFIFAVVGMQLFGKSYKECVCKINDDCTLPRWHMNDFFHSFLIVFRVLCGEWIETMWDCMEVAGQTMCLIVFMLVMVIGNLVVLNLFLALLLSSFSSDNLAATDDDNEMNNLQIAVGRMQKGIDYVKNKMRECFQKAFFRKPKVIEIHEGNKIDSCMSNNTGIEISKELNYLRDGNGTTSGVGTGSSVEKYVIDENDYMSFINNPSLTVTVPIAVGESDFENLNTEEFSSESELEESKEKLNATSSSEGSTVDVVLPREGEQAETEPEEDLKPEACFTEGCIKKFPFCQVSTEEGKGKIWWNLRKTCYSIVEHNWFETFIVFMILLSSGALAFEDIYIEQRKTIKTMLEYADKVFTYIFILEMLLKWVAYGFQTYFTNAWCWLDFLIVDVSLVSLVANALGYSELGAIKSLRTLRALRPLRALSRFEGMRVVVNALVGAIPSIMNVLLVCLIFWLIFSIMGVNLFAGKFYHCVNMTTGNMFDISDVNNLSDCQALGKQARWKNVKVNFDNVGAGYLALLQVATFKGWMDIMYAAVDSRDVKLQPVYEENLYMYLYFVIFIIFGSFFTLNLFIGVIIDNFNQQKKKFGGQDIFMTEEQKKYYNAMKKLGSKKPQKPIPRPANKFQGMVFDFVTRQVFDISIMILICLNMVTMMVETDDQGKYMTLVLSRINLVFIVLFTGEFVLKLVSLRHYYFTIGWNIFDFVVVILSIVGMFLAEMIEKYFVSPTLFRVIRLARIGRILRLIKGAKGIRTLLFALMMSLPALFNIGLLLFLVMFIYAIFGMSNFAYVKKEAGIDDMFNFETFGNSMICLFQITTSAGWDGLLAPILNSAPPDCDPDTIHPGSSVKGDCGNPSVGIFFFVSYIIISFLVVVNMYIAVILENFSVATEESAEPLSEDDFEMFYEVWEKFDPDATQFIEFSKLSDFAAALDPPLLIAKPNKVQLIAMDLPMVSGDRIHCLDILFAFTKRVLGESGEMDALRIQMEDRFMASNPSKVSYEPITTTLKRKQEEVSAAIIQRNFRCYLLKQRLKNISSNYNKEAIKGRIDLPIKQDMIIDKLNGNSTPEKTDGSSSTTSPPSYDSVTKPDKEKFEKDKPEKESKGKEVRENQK
HEK293 cells stably expressing NaV1.3 are plated into 96-well microtiter plates. After an appropriate incubation period, the cells are stained with the voltage sensitive dyes CC2-DMPE/DiSBAC2(3) as follows.
Reagents: • 100 mg/mL Pluronic F-127 (Sigma #P2443), in dry DMSO • 10 mM DiSBAC2(3) (Aurora #00-100-010) in dry DMSO • 10 mM CC2-DMPE (Aurora #00-100-008) in dry DMSO • 200 mM ABSC1 in H2O • Hank's Balanced Salt Solution (Hyclone #SH30268.02) supplemented with 10 mM HEPES (Gibco #15630-080)
2×CC2-DMPE=20 μM CC2-DMPE: 10 mM CC2-DMPE is vortexed with an equivalent volume of 10% pluronic, followed by vortexing in required amount of HBSS containing 10 mM HEPES. Each cell plate will require 5 mL of 2×CC2-DMPE. 50 μL of 2×CC2-DMPE is to wells containing washed cells, resulting in a 10 μM final staining concentration. The cells are stained for 30 minutes in the dark at RT.
2×DISBAC2(3) with ABSC1=6 μM DISBAC2(3) and 1 mM ABSC1: The required amount of 10 mM DISBAC2(3) is added to a 50 ml conical tube and mixed with 1 μL 10% pluronic for each mL of solution to be made and vortexed together. Then HBSS/HEPES is added to make up 2× solution. Finally, the ABSC1 is added.
The 2× DiSBAC2(3) solution can be used to solvate compound plates. Note that compound plates are made at 2× drug concentration. Wash stained plate again, leaving residual volume of 50 μL. Add 50 uL/well of the 2× DiSBAC2(3) w/ABSC1. Stain for 30 minutes in the dark at RT.
as §4, with “plate. […]” for “plate.”

NaV1.3 [3] = target: T2, NaV1.3; details: read-out: TTX IC50; cited from earlier work
Target sequence in this assay (Q9NY46 whole entry, looked up): as the sequence (Q9NY46 whole entry) above

NaV1.8 [4] = target: T1, NaV1.8; details: read-out: TTX IC50; cited from earlier work
NaV1.2 = NaV1.2 (Homo sapiens, UniProt Q99250); details: read-out: TTX IC50; cited from earlier work
NaV1.9 = NaV1.9 (Homo sapiens, UniProt Q9UI33); details: read-out: TTX IC50; cited from earlier work
NaV1.1 = NaV1.1 (Homo sapiens, UniProt P35498); details: read-out: TTX IC50; cited from earlier work
NaV1.6 = NaV1.6 (Homo sapiens, UniProt Q9UQD0); details: read-out: TTX IC50; cited from earlier work

NaV 1.7 channel, sequence (Q15858 whole entry): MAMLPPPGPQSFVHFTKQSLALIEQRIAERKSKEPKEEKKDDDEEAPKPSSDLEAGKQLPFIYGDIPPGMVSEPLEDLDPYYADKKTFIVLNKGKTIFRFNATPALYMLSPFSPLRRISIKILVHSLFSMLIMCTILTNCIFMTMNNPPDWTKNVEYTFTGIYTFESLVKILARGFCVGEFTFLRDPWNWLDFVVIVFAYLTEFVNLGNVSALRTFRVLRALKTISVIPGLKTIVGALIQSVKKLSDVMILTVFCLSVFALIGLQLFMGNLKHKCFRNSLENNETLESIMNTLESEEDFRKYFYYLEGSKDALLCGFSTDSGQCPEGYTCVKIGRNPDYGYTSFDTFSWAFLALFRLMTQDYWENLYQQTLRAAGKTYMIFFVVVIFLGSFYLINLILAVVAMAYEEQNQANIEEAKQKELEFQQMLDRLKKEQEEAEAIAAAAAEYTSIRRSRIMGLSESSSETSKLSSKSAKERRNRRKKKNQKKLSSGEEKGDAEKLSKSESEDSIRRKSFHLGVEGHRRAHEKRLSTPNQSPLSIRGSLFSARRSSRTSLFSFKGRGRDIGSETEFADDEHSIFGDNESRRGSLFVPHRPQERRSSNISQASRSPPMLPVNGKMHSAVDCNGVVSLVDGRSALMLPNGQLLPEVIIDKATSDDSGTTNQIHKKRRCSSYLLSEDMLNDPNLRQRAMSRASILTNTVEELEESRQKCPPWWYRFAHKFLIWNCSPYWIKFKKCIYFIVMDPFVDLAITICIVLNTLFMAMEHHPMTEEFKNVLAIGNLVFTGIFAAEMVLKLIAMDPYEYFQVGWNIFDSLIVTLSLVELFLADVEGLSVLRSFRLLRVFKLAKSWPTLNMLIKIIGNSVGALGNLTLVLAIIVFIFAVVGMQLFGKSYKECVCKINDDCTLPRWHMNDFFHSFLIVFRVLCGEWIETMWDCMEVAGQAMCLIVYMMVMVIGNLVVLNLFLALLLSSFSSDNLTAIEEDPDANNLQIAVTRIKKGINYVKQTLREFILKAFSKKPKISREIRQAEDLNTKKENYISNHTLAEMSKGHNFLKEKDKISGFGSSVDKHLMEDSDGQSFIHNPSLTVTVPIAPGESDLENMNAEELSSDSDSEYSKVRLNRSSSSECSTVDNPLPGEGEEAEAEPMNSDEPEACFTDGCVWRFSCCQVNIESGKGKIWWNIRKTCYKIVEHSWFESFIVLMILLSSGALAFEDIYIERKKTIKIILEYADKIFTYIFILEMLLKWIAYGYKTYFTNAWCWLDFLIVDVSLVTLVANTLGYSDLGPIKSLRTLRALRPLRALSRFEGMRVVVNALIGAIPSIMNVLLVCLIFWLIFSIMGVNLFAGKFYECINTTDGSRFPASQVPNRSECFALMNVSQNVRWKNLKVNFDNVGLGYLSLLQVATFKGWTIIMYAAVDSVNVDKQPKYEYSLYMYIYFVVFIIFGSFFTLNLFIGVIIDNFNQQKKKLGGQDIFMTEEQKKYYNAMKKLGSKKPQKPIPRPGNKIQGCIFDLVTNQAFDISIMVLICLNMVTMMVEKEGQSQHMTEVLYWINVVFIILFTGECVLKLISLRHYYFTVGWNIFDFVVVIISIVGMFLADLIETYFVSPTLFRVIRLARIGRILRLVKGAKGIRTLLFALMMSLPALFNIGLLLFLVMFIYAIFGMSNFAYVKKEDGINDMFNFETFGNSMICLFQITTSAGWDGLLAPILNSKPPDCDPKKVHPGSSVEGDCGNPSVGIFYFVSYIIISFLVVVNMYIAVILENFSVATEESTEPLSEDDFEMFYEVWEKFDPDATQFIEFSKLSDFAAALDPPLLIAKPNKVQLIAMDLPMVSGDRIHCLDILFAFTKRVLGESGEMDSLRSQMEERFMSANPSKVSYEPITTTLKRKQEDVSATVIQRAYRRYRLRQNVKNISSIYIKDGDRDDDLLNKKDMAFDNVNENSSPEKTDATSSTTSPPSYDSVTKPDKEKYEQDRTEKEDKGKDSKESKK

Row | Structure (SMILES) | IC50 (NaV 1.7 channel) | IC50 (NaV1.8 [1]) | IC50 (NaV1.3 [2]) | other results
1 | Cc1oc(C(C)(C)C)cc1C(=O)Nc1cccc(S(N)(=O)=O)c1 [Compound 3] | 10 to 20 µM | < 2 µM | > 20 µM | 
2 | C[C@@H](c1ccc(F)cc1)N1CCN(Cc2oc(C(C)(C)C)cc2C(=O)Nc2cccc(S(N)(=O)=O)c2)CC1 [Compound 5] |  |  | 10 to 20 µM | 
3 | CC(C)(C)c1cc(C(=O)Nc2cccc(S(N)(=O)=O)c2)c(CN2CCCCC2)o1 [Compound 6] |  | 2 to 10 µM | > 20 µM | 
4 | Cc1oc(CC(C)C)c(CN2CCOCC2)c1C(=O)Nc1cccc(S(N)(=O)=O)c1 [Compound 7] | 2 to 10 µM | 10 to 20 µM | > 20 µM | 
5 | Cc1oc(C(C)(C)C)c(CN2CCOCC2)c1C(=O)Nc1cccc(S(N)(=O)=O)c1 [Compound 8] | 10 to 20 µM | > 20 µM | > 20 µM | 
6 | CCN(CC)Cc1oc(-c2ccccc2)cc1C(=O)Nc1cccc(S(N)(=O)=O)c1 [Compound 9] | 2 to 10 µM | 2 to 10 µM | 2 to 10 µM | 
7 | Cc1ccc(OCc2occc2C(=O)Nc2cccc(S(N)(=O)=O)c2)cc1 [Compound 10] | > 20 µM |  | > 20 µM | 
8 | Cc1oc(CC(C)C)c(CN2CCCC2)c1C(=O)Nc1cccc(S(N)(=O)=O)c1 [Compound 11] | 2 to 10 µM | 10 to 20 µM | 10 to 20 µM | 
9 | Cc1oc(CC(C)C)c(CN2CCCCC2)c1C(=O)Nc1cccc(S(N)(=O)=O)c1 [Compound 12] | 2 to 10 µM | 2 to 10 µM | 10 to 20 µM | 
10 | Cc1oc(C(C)(C)C)c(CO)c1C(=O)Nc1cccc(S(N)(=O)=O)c1 [Compound 13] | 10 to 20 µM | < 2 µM | 10 to 20 µM | 
11 | Cc1coc(C)c1C(=O)Nc1cccc(S(N)(=O)=O)c1 [Compound 14] | > 20 µM | > 20 µM | > 20 µM | 
12 | Cc1oc(C(C)(C)C)cc1C(=O)Nc1cccc(S(N)(=O)=O)c1 [Compound 18] | 10 to 20 µM | < 2 µM | 10 to 20 µM | 
13 | NS(=O)(=O)c1cccc(NC(=O)c2cc(-c3ccc(Cl)cc3)cs2)c1 [Compound 19] |  |  | 10 to 20 µM | 
14 | NS(=O)(=O)c1cc(NC(=O)c2cc(-c3cccc(Cl)c3)oc2C(F)(F)F)ccc1Cl [Compound 20] |  |  | > 20 µM | 
15 | NS(=O)(=O)c1cccc(NC(=O)c2cccnc2Oc2ccc(Cl)cc2)c1 [Compound 21] |  | > 20 µM | > 20 µM | 
16 | CC(C)(C)c1ccc(C(=O)Nc2cccc(S(N)(=O)=O)c2)cn1 [Compound 22, 6-tert-Butyl-N-(3-(aminosulfonyl)phenyl)pyridine-3-carboxamide] | > 20 µM | 10 to 20 µM | > 20 µM | 
17 | CC(C)(C)c1nnc(C(=O)Nc2cccc(S(N)(=O)=O)c2)s1 [Compound 23, 5-tert-Butyl-N-(3-sulfamoylphenyl)-1,3,4-thiadiazole-2-carboxamide] | > 20 µM | > 20 µM | > 20 µM | 
18 | Cc1nc(C(C)(C)C)sc1C(=O)Nc1cccc(S(N)(=O)=O)c1 [Compound 24] | > 20 µM |  | > 20 µM | 
19 | Cc1oc(C(C)(C)C)nc1C(=O)Nc1cccc(S(N)(=O)=O)c1 [Compound 25] | 10 to 20 µM | 10 to 20 µM | > 20 µM | 
20 | CC(C)(C)c1nc(C(=O)Nc2cccc(S(N)(=O)=O)c2)n(Cc2ccccc2)n1 [Compound 26, 5-tert-Butyl-2-benzyl-N-(3-(aminosulfonyl)phenyl)-2H-1,2,4-triazole-3-carboxamide] |  | 10 to 20 µM | > 20 µM | 
21 | Cn1nc(C(C)(C)C)nc1C(=O)Nc1cccc(S(N)(=O)=O)c1 [Compound 27] |  |  | > 20 µM | 
22 | NS(=O)(=O)c1cccc(NC(=O)c2ccc(-c3cccc(C(F)(F)F)c3)o2)c1 [Compound 29] | 10 to 20 µM |  | 2 to 10 µM | 
23 | NS(=O)(=O)c1cccc(NC(=O)c2cc(-c3ccccc3)on2)c1 [Compound 30] | 10 to 20 µM |  |  | 
24 | COc1ccc(-c2cc(C(=O)Nc3cccc(S(N)(=O)=O)c3)on2)cc1 [Compound 31] | > 20 µM |  |  | 
25 | COc1cccc(-c2cc(C(=O)Nc3cccc(S(N)(=O)=O)c3)no2)c1 [Compound 32] | > 20 µM |  |  | 
26 | NC1=N[C@H](O)[C@H]2[C@H]3O[C@]4(O)O[C@@H]([C@@H](O)[C@@]2(N1)[C@@H]4O)[C@]3(O)CO [TTX, tetrodotoxin] |  |  |  | IC50 (NaV1.3 [3]): 0.015 µM; IC50 (NaV1.8 [4]): > 50 µM; IC50 (NaV1.2): 0.01 µM; IC50 (NaV1.9): 1 µM; IC50 (NaV1.1): 0.01 µM; IC50 (NaV1.6): 0.006 µM
